“And” between values parts separate entries of the source, which are not always exact repeats. Identical values can stand only once.
Columns and labels:
[1] = test system: PTEN mRNA; test: PTEN mRNA levels in liver, real-time PCR (Example 14 in vivo study); design: species or system mice; settings: for PTEN mRNA levels (% inhibition): liver, 72 h; for ED50: estimated, Graphpad Prism, dose at which 50% mRNA reduction is observed
Method: (§1) Six week old male Balb/c mice (Jackson Laboratory, Bar Harbor, Me.) were administered a single intraperitoneal (i.p) injection with 4′-CH2—O-2′ BNA containing oligomers (392745 and 392063) and 6(S)-4′-CH(CH3)—O-2′ BNA containing oligomers (392749 and 411847) at a does of 3.2, 10, 32, 66 and 100 mg/kg. Oligomers 392063 and 411847 contain LNA nucleosides with methylated pyrimidines, and oligomers 392745 and 392749 contain LNA nucleosides with non-methylated pyrimidines in the wings. All intemucleoside linkages are phosphorothioates, nucleosides not followed by a subscript are βD-2′-deoxyribonucleosides, nucleosides followed by a subscript 1 are 4′-CH2—O-2′ modified bicyclic nucleosides, nucleosides followed by a subscript S are 6(S)-4′-CH(CH3)—O-2′ modified bicyclic nucleosides wherein S indicates the configuration at the 6 carbon atom and ^MeC indicates a 5′-methyl cytosine nucleoside.
Each dose group consisted of four animals. The mice were sacrificed 72 hours following the final administration to determine the PTEN mRNA levels in liver using real-time PCR and RIBOGREEN® RNA quantification reagent (Molecular Probes, Inc. Eugene, Oreg.) according to standard protocols. PTEN mRNA levels were determined relative to total RNA (using Ribogreen), prior to normalization to saline-treated control. Results are listed below as the average % inhibition of mRNA expression for each treatment group, normalized to saline-injected control.
Estimated ED50 concentrations for each oligomers were calculated using Graphpad Prism. ED50 is the dose at which 50% mRNA reducation is observed.

[2] = Liver transaminase (ALT) levels in serum (Example 14); format: in vivo, mice
Method: as §1
Liver transaminase levels, alanine aminotranferease (ALT) and aspartate aminotransferase (AST), in serum were also measured relative to saline injected mice. Increases in the transaminase levels can indicate hepatotoxicity. The approximate liver transaminase levels are listed below.

[3] = test system: PTEN RNA; test: PTEN RNA in liver (Example 15 in vivo study); design: species or system mice; settings: 72 h, compared to PBS control
Method: (§2) Six week old male Balb/c mice (Jackson Laboratory, Bar Harbor, Me.) were administered a single intraperitoneal (i.p) injection of oligomers as set forth in the table below.
(§3) Mice were divided into 9 groups, with 4 mice in each group. The mice of 8 groups received a single dose, administered i.p., of one of the above oligomeric compounds at a dose of 100, 32, 10, or 3.2 mg/kg. The final group was dosed with phosphate buffered saline (PBS) as a control. The mice were sacrificed 72 hours after administration. Antisense activity was determined by measuring PTEN RNA in liver.

[4] = Serum ALT, individual animals (Example 15); format: in vivo, mice; settings: for ALT levels - Individual animals: serum, four animals
Method: as §3

[5] = Body weight at sacrifice relative to pre-dose (Example 15); format: in vivo, mice; settings: for % of pre-dose weight: 72 h, PBS = 99
Method: as §3
(§4) Body weight was measured before treatment and again at sacrifice 72 hours after treatment.

[6] = Spleen weight as a measure of inflammatory response (Example 15); format: in vivo, mice; settings: for spleen weight, % Control: relative to PBS control
Method: as §3
(§5) Spleens were weighed as a measure of inflammatory response.

[7] = test system: PTEN RNA; test: PTEN RNA in liver (Example 16 in vivo study); design: species or system mice; settings: for % Reduction PTEN RNA: liver, 72 h, compared to PBS control; for ED50: PTEN RNA in liver
Method: as §2
as §3, with “17” for “9”, “16” for “8”, “liver and is expressed as % reduction compared to PBS control mice.” for “liver.”

[8] = Serum ALT, individual animals (Example 16); format: in vivo, mice; settings: four animals
Method: as §3, with “17” for “9”, “16” for “8”, “liver and is expressed as % reduction compared to PBS control mice.” for “liver.”
Toxicity was assessed by measuring alanine aminotranferease (ALT) in serum.

[9] = Body weight at sacrifice relative to pre-dose (Example 16); format: in vivo, mice; settings: 72 h, PBS = 102
Method: as §3, with “17” for “9”, “16” for “8”, “liver and is expressed as % reduction compared to PBS control mice.” for “liver.”
as §4

[10] = Spleen weight as a measure of inflammatory response (Example 16); format: in vivo, mice; settings: for spleen weight, % Control: relative to PBS control
Method: as §3, with “17” for “9”, “16” for “8”, “liver and is expressed as % reduction compared to PBS control mice.” for “liver.”
as §5

spleen weight, % Control ([10]; 3.2 mg/kg) [%] | spleen weight, % Control ([10]; 10 mg/kg) [%] | spleen weight, % Control ([10]; 32 mg/kg) [%] | spleen weight, % Control ([10]; 100 mg/kg) [%] | Substance | % Reduction PTEN RNA ([7]; 3.2 mg/kg single i.p.) [%] | % Reduction PTEN RNA ([7]; 10 mg/kg single i.p.) [%] | % Reduction PTEN RNA ([7]; 32 mg/kg single i.p.) [%] | % Reduction PTEN RNA ([7]; 100 mg/kg single i.p.) [%] | ED50 [7] [mg/kg] | ALT levels - Individual animals ([8]; 3.2 mg/kg) | ALT levels - Individual animals ([8]; 10 mg/kg) | ALT levels - Individual animals ([8]; 32 mg/kg) | ALT levels - Individual animals ([8]; 100 mg/kg) | % pre-dose wt ([9]; 3.2 mg/kg) [%] | % pre-dose wt ([9]; 10 mg/kg) [%] | % pre-dose wt ([9]; 32 mg/kg) [%] | % pre-dose wt ([9]; 100 mg/kg) [%] | also measured
– | – | – | – | CSUSTAGCACTGGCCSUS [ISIS 392749] | – | – | – | – | – | – | – | – | – | – | – | – | – | PTEN mRNA levels (% inhibition) ([1]; 3.2 mg/kg single i.p.): 14%; PTEN mRNA levels (% inhibition) ([1]; 10 mg/kg single i.p.): 20%; PTEN mRNA levels (% inhibition) ([1]; 32 mg/kg single i.p.): 81%; PTEN mRNA levels (% inhibition) ([1]; 66 mg/kg single i.p.): 92%; PTEN mRNA levels (% inhibition) ([1]; 100 mg/kg single i.p.): 93%; ED50 [1]: 15 mg/kg; ALT levels ([2]; 3.2 mg/kg, serum, saline = 24): 18 IU/L; ALT levels ([2]; 10 mg/kg, serum, saline = 24): 24 IU/L; ALT levels ([2]; 32 mg/kg, serum, saline = 24): 14 IU/L; ALT levels ([2]; 66 mg/kg, serum, saline = 24): 18 IU/L; ALT levels ([2]; 100 mg/kg, serum, saline = 24): 33 IU/L; ALT levels ([2]; all doses): not elevated to a level indicative of hepatotoxicity
– | – | – | – | Cas Uas Tds Ads Gds Cds Ads Cds Tds Gds Gds Cds Cas Ua [ISIS 396006] | – | – | – | – | – | – | – | – | – | – | – | – | – | % Reduction PTEN RNA ([3]; 3.2 mg/kg single i.p.): 47%; % Reduction PTEN RNA ([3]; 10 mg/kg single i.p.): 77%; % Reduction PTEN RNA ([3]; 32 mg/kg single i.p.): 95%; % Reduction PTEN RNA ([3]; 100 mg/kg single i.p.): 97%; ALT levels - Individual animals ([4]; 3.2 mg/kg): 27 IU/L and 19 IU/L and 17 IU/L and 24 IU/L; ALT levels - Individual animals ([4]; 10 mg/kg): 18 IU/L and 22 IU/L and 19 IU/L and 20 IU/L; ALT levels - Individual animals ([4]; 32 mg/kg): 24 IU/L and 19 IU/L and 15 IU/L and 23 IU/L; ALT levels - Individual animals ([4]; 100 mg/kg): 28 IU/L (2×) and 23 IU/L (2×); % of pre-dose weight ([5]; 3.2 mg/kg): 100%; % of pre-dose weight ([5]; 10 mg/kg): 101%; % of pre-dose weight ([5]; 32 mg/kg): 101%; % of pre-dose weight ([5]; 100 mg/kg): 100%; spleen weight, % Control ([6]; 3.2 mg/kg): 95%; spleen weight, % Control ([6]; 10 mg/kg): 100%; spleen weight, % Control ([6]; 32 mg/kg): 97%; spleen weight, % Control ([6]; 100 mg/kg): 120%
89 | 96 | 110 | 96 | Cjs Uos Tds Ads Gds Cds Ads Cds Tds Gds Gds Cds Cjs Uj [ISIS 443393] | 10 | 35 | 64 | 91 | 16.2 | 19 IU/L and 36 IU/L and 83 IU/L and 20 IU/L | 26 IU/L and 33 IU/L and 30 IU/L and 29 IU/L | 21 IU/L and 24 IU/L and 53 IU/L (2×) | 16 IU/L and 22 IU/L and 42 IU/L and 23 IU/L | 101 | 104 | 99 | 98 | –
98 | 92 | 101 | 109 | Cxs Uxs Tds Ads Gds Cds Ads Cds Tds Gds Gds Cds Cxs Ux [ISIS 445544] | 31 | 72 | 93 | 95 | 4.9 | 21 IU/L and 28 IU/L and 30 IU/L and 36 IU/L | 23 IU/L and 33 IU/L and 20 IU/L and 36 IU/L | 23 IU/L and 38 IU/L and 19 IU/L and 22 IU/L | 977 IU/L and 1061 IU/L and 88 IU/L and 133 IU/L | 103 | 101 | 102 | 98 | –
– | – | – | – | ^MeCSTSTAGCACTGGC^MeCSTS [ISIS 411847] | – | – | – | – | – | – | – | – | – | – | – | – | – | PTEN mRNA levels (% inhibition) ([1]; 3.2 mg/kg single i.p.): 0%; PTEN mRNA levels (% inhibition) ([1]; 10 mg/kg single i.p.): 32%; PTEN mRNA levels (% inhibition) ([1]; 32 mg/kg single i.p.): 87%; PTEN mRNA levels (% inhibition) ([1]; 66 mg/kg single i.p.): 84%; PTEN mRNA levels (% inhibition) ([1]; 100 mg/kg single i.p.): 92%; ED50 [1]: 12 mg/kg; ALT levels ([2]; 3.2 mg/kg, serum, saline = 24): 26 IU/L; ALT levels ([2]; 10 mg/kg, serum, saline = 24): 27 IU/L; ALT levels ([2]; 32 mg/kg, serum, saline = 24): 16 IU/L; ALT levels ([2]; 66 mg/kg, serum, saline = 24): 279 IU/L; ALT levels ([2]; 100 mg/kg, serum, saline = 24): 2816 IU/L; ALT level decrease as compared to 392063 treatment ([2]; dose not stated): about 5 fold
– | – | – | – | ^mCas Tas Tds Ads Gds Cds Ads Cds Tds Gds Gds Cds ^mCas Ta [ISIS 435854] | – | – | – | – | – | – | – | – | – | – | – | – | – | % Reduction PTEN RNA ([3]; 3.2 mg/kg single i.p.): 48%; % Reduction PTEN RNA ([3]; 10 mg/kg single i.p.): 73%; % Reduction PTEN RNA ([3]; 32 mg/kg single i.p.): 94%; % Reduction PTEN RNA ([3]; 100 mg/kg single i.p.): 95%; ALT levels - Individual animals ([4]; 3.2 mg/kg): 15 IU/L and 22 IU/L and 20 IU/L and 11 IU/L; ALT levels - Individual animals ([4]; 10 mg/kg): 23 IU/L and 21 IU/L and 33 IU/L and 28 IU/L; ALT levels - Individual animals ([4]; 32 mg/kg): 24 IU/L and 29 IU/L and 16 IU/L and 46 IU/L; ALT levels - Individual animals ([4]; 100 mg/kg): 1575 IU/L and 854 IU/L and 1665 IU/L and 3948 IU/L; Serum ALT ([4]; highest dose): elevated; % of pre-dose weight ([5]; 3.2 mg/kg): 99%; % of pre-dose weight ([5]; 10 mg/kg): 102%; % of pre-dose weight ([5]; 32 mg/kg): 102%; % of pre-dose weight ([5]; 100 mg/kg): 94%; body weight ([5]; highest dose): some weight loss; spleen weight, % Control ([6]; 3.2 mg/kg): 112%; spleen weight, % Control ([6]; 10 mg/kg): 87%; spleen weight, % Control ([6]; 32 mg/kg): 115%; spleen weight, % Control ([6]; 100 mg/kg): 160%; spleen weight compared to control and to the non-methylated compound ([6]; mouse, in vivo): marked increase
106 | 96 | 97 | 98 | ^mCjs Tjs Tds Ads Gds Cds Ads Cds Tds Gds Gds Cds ^mCjs Tj [ISIS 443394] | 16 | 39 | 68 | 89 | 13.5 | 28 IU/L and 26 IU/L and 30 IU/L and 69 IU/L | 55 IU/L and 28 IU/L and 32 IU/L (2×) | 55 IU/L and 25 IU/L (2×) and 28 IU/L | 23 IU/L (2×) and 44 IU/L and 18 IU/L | 102 | 102 | 101 | 101 | –
100 | 99 | 134 | 139 | ^mCxs Txs Tds Ads Gds Cds Ads Cds Tds Gds Gds Cds ^mCxs Tx [ISIS 445545] | 21 | 55 | 87 | 92 | 7.7 | 20 IU/L and 34 IU/L (2×) and 31 IU/L | 79 IU/L and 19 IU/L and 28 IU/L and 18 IU/L | 22 IU/L and 45 IU/L and 24 IU/L and 47 IU/L | 102 IU/L and 135 IU/L and 277 IU/L and 85 IU/L | 100 | 102 | 101 | 102 | spleen weight compared to control and to the non-methylated compound ([10]; mouse, in vivo): increase in spleen weight

— patent US8846639B2, “Oligomeric compounds comprising bicyclic nucleosides and having reduced toxicity” (Isis Pharmaceutical, Inc., priority 2008, dated 2014)
